# Reference: ChEMBL document CHEMBL4373641, “Synthesis and direct comparison of the anticancer activities of phomopsolides D and E and two 7-oxa-/7-aza-analogues” (Medchemcomm, 2019)
# Key:
# Format in all cases: functional, cell-based
# SW-620 = experiment: Antiproliferative activity against human SW620 cells assessed as reduction in cell viability after 48 hrs by SRB assay; conditions: SW-620, 48 h
# SNB-75 = experiment: Antiproliferative activity against human SNB75 cells assessed as reduction in cell viability after 48 hrs by SRB assay; conditions: SNB-75, 48 h
# SNB-19 = experiment: Antiproliferative activity against human SNB19 cells assessed as reduction in cell viability after 48 hrs by SRB assay; conditions: SNB-19, 48 h
# HL-60(TB) = experiment: Antiproliferative activity against human HL-60(TB) cells assessed as reduction in cell viability after 48 hrs by SRB assay; conditions: HL-60, 48 h
# UO-31 = experiment: Antiproliferative activity against human UO31 cells assessed as reduction in cell viability after 48 hrs by SRB assay; conditions: UO-31, 48 h
# SF-539 = experiment: Antiproliferative activity against human SF539 cells assessed as reduction in cell viability after 48 hrs by SRB assay; conditions: SF-539, 48 h
# MDA-MB-468 = experiment: Antiproliferative activity against human MDA-MB-468 cells assessed as reduction in cell viability after 48 hrs by SRB assay; conditions: MDA-MB-468, 48 h
# NCI-H522 = experiment: Antiproliferative activity against human NCI-H522 cells assessed as reduction in cell viability after 48 hrs by SRB assay; conditions: NCI-H522, 48 h, pooled result: one value given for 8 cell lines, strains, targets or settings
# A498 = experiment: Antiproliferative activity against human A498 cells assessed as reduction in cell viability after 48 hrs by SRB assay; conditions: A498, 48 h
# TK-10 = experiment: Antiproliferative activity against human TK10 cells assessed as reduction in cell viability after 48 hrs by SRB assay; conditions: TK-10, 48 h
# Hs-578T = experiment: Antiproliferative activity against human Hs 578T cells assessed as reduction in cell viability after 48 hrs by SRB assay
# UACC-62 = experiment: Antiproliferative activity against human UACC62 cells assessed as reduction in cell viability after 48 hrs by SRB assay; conditions: UACC-62, 48 h, pooled result: one value given for 8 cell lines, strains, targets or settings
# SK-OV-3 = experiment: Antiproliferative activity against human SKOV3 cells assessed as reduction in cell viability after 48 hrs by SRB assay; conditions: SK-OV-3, 48 h
# SF-268 = experiment: Antiproliferative activity against human SF268 cells assessed as reduction in cell viability after 48 hrs by SRB assay; conditions: SF-268, 48 h
# IGROV-1 = experiment: Antiproliferative activity against human IGROV1 cells assessed as reduction in cell viability after 48 hrs by SRB assay; conditions: IGROV-1, 48 h
# NCI/ADR-RES = experiment: Antiproliferative activity against human NCI/ADR-RES cells assessed as reduction in cell viability after 48 hrs by SRB assay
# HCC 2998 = experiment: Antiproliferative activity against human HCC2998 cells assessed as reduction in cell viability after 48 hrs by SRB assay; conditions: HCC 2998, 48 h
# KM12 = experiment: Antiproliferative activity against human KM12 cells assessed as reduction in cell viability after 48 hrs by SRB assay; conditions: KM12, 48 h
# RPMI-8226 = experiment: Antiproliferative activity against human RPMI8226 cells assessed as reduction in cell viability after 48 hrs by SRB assay; conditions: RPMI-8226, 48 h
# PC-3 = experiment: Antiproliferative activity against human PC3 cells assessed as reduction in cell viability after 48 hrs by SRB assay; conditions: PC-3, 48 h
# SR = experiment: Antiproliferative activity against human SR cells assessed as reduction in cell viability after 48 hrs by SRB assay
# OVCAR-8 = experiment: Antiproliferative activity against human OVCAR8 cells assessed as reduction in cell viability after 48 hrs by SRB assay; conditions: OVCAR-8, 48 h
# ACHN = experiment: Antiproliferative activity against human ACHN cells assessed as reduction in cell viability after 48 hrs by SRB assay
# U-251 = experiment: Antiproliferative activity against human U251 cells assessed as reduction in cell viability after 48 hrs by SRB assay; conditions: U-251, 48 h
# HCT-15 = experiment: Antiproliferative activity against human HCT15 cells assessed as reduction in cell viability after 48 hrs by SRB assay; conditions: HCT-15, 48 h
# K562 = experiment: Antiproliferative activity against human K562 cells assessed as reduction in cell viability after 48 hrs by SRB assay; conditions: K562, 48 h
# HCT-116 = experiment: Antiproliferative activity against human HCT116 cells assessed as reduction in cell viability after 48 hrs by SRB assay; conditions: HCT-116, 48 h
# CAKI-1 = experiment: Antiproliferative activity against human CAKI-1 cells assessed as reduction in cell viability after 48 hrs by SRB assay; conditions: CAKI-1, 48 h
# DU-145 = experiment: Antiproliferative activity against human DU145 cells assessed as reduction in cell viability after 48 hrs by SRB assay; conditions: DU-145, 48 h
# SN12C = experiment: Antiproliferative activity against human SN12C cells assessed as reduction in cell viability after 48 hrs by SRB assay
# OVCAR-5 = experiment: Antiproliferative activity against human OVCAR5 cells assessed as reduction in cell viability after 48 hrs by SRB assay; conditions: OVCAR-5, 48 h
# MDA-MB-435 = experiment: Antiproliferative activity against human MDA-MB-435 cells assessed as reduction in cell viability after 48 hrs by SRB assay; conditions: MDA-MB-435, 48 h
# BT-549 = experiment: Antiproliferative activity against human BT549 cells assessed as reduction in cell viability after 48 hrs by SRB assay; conditions: BT-549, 48 h
# CCRF-CEM = experiment: Antiproliferative activity against human CCRF-CEM cells assessed as reduction in cell viability after 48 hrs by SRB assay
# OVCAR-4 = experiment: Antiproliferative activity against human OVCAR4 cells assessed as reduction in cell viability after 48 hrs by SRB assay; conditions: OVCAR-4, 48 h
# HOP-92 = experiment: Antiproliferative activity against human HOP92 cells assessed as reduction in cell viability after 48 hrs by SRB assay; conditions: HOP-92, 48 h
# MOLT-4 = experiment: Antiproliferative activity against human MOLT4 cells assessed as reduction in cell viability after 48 hrs by SRB assay; conditions: MOLT-4, 48 h
# SF-295 = experiment: Antiproliferative activity against human SF295 cells assessed as reduction in cell viability after 48 hrs by SRB assay; conditions: SF-295, 48 h
# MCF7 = experiment: Antiproliferative activity against human MCF7 cells assessed as reduction in cell viability after 48 hrs by SRB assay; conditions: MCF7, 48 h
# T47D = experiment: Antiproliferative activity against human T47D cells assessed as reduction in cell viability after 48 hrs by SRB assay
# COLO 205 = experiment: Antiproliferative activity against human COLO205 cells assessed as reduction in cell viability after 48 hrs by SRB assay; conditions: COLO 205, 48 h
# RXF 393 = experiment: Antiproliferative activity against human RXF393 cells assessed as reduction in cell viability after 48 hrs by SRB assay; conditions: RXF 393, 48 h
# MDA-MB-231 = experiment: Antiproliferative activity against human MDA-MB-231 cells assessed as reduction in cell viability after 48 hrs by SRB assay; conditions: MDA-MB-231, 48 h
# HT-29 = experiment: Antiproliferative activity against human HT-29 cells assessed as reduction in cell viability after 48 hrs by SRB assay; conditions: HT-29, 48 h
# OVCAR-3 = experiment: Antiproliferative activity against human OVCAR3 cells assessed as reduction in cell viability after 48 hrs by SRB assay; conditions: OVCAR-3, 48 h
# 786-0 = experiment: Antiproliferative activity against human 786-0 cells assessed as reduction in cell viability after 48 hrs by SRB assay; conditions: 786-0, 48 h
smiles,measurement,setting,value
C/C=C(\C)C(=O)O[C@H]1C=CC(=O)O[C@H]1CNC(=O)[C@H](C)O,IC50,SW-620,25 µM
same,IC50,SNB-75,2 to 49 µM
same,IC50,SNB-19,2 to 49 µM
same,IC50,HL-60(TB),2 to 49 µM
same,IC50,UO-31,30 µM
same,IC50,SF-539,2 to 49 µM
same,IC50,MDA-MB-468,2 to 49 µM
same,IC50,NCI-H522,27 µM
same,IC50,A498,30 µM
same,IC50,TK-10,30 µM
same,IC50,Hs-578T,2 to 49 µM
same,IC50,UACC-62,28 µM
same,IC50,SK-OV-3,2 to 49 µM
same,IC50,SF-268,2 to 49 µM
same,IC50,IGROV-1,2 to 49 µM
same,IC50,NCI/ADR-RES,2 to 49 µM
same,IC50,HCC 2998,25 µM
same,IC50,KM12,25 µM
same,IC50,RPMI-8226,2 to 49 µM
same,IC50,PC-3,25 µM
same,IC50,SR,2 to 49 µM
same,IC50,OVCAR-8,2 to 49 µM
same,IC50,ACHN,30 µM
same,IC50,U-251,2 to 49 µM
same,IC50,HCT-15,25 µM
same,IC50,K562,2 to 49 µM
same,IC50,HCT-116,25 µM
same,IC50,CAKI-1,30 µM
same,IC50,DU-145,25 µM
same,IC50,SN12C,30 µM
same,IC50,OVCAR-5,2 to 49 µM
same,IC50,MDA-MB-435,2 to 49 µM
same,IC50,BT-549,2 to 49 µM
same,IC50,CCRF-CEM,2 to 49 µM
same,IC50,OVCAR-4,2 to 49 µM
same,IC50,HOP-92,2 to 49 µM
same,IC50,MOLT-4,2 to 49 µM
same,IC50,SF-295,2 to 49 µM
same,IC50,MCF7,2 to 49 µM
same,IC50,T47D,2 to 49 µM
same,IC50,COLO 205,25 µM
same,IC50,RXF 393,30 µM
same,IC50,MDA-MB-231,2 to 49 µM
same,IC50,HT-29,25 µM
same,IC50,OVCAR-3,2 to 49 µM
same,IC50,786-0,30 µM
C/C=C(\C)C(=O)O[C@H]1C=CC(=O)O[C@H]1CCC(=O)[C@H](C)O,IC50,SW-620,18 µM
same,IC50,SNB-75,2 to 49 µM
same,IC50,SNB-19,2 to 49 µM
same,IC50,HL-60(TB),2 to 49 µM
same,IC50,UO-31,2 to 49 µM
same,IC50,SF-539,2 to 49 µM
same,IC50,MDA-MB-468,2 to 49 µM
same,IC50,NCI-H522,26 µM
same,IC50,A498,2 to 49 µM
same,IC50,TK-10,2 to 49 µM
same,IC50,Hs-578T,20 µM
same,IC50,UACC-62,24 µM
same,IC50,SK-OV-3,2 to 49 µM
same,IC50,SF-268,2 to 49 µM
same,IC50,IGROV-1,2 to 49 µM
same,IC50,NCI/ADR-RES,20 µM
same,IC50,HCC 2998,18 µM
same,IC50,KM12,18 µM
same,IC50,RPMI-8226,2 to 49 µM
same,IC50,PC-3,23 µM
same,IC50,SR,2 to 49 µM
same,IC50,OVCAR-8,2 to 49 µM
same,IC50,ACHN,2 to 49 µM
same,IC50,U-251,2 to 49 µM
same,IC50,HCT-15,18 µM
same,IC50,K562,2 to 49 µM
same,IC50,HCT-116,18 µM
same,IC50,CAKI-1,2 to 49 µM
same,IC50,DU-145,23 µM
same,IC50,SN12C,2 to 49 µM
same,IC50,OVCAR-5,2 to 49 µM
same,IC50,MDA-MB-435,20 µM
same,IC50,BT-549,2 to 49 µM
same,IC50,CCRF-CEM,2 to 49 µM
same,IC50,OVCAR-4,2 to 49 µM
same,IC50,HOP-92,2 to 49 µM
same,IC50,MOLT-4,2 to 49 µM
same,IC50,SF-295,2 to 49 µM
same,IC50,MCF7,20 µM
same,IC50,T47D,20 µM
same,IC50,COLO 205,18 µM
same,IC50,RXF 393,2 to 49 µM
same,IC50,MDA-MB-231,20 µM
same,IC50,HT-29,18 µM
same,IC50,OVCAR-3,2 to 49 µM
same,IC50,786-0,2 to 49 µM
C/C=C(\C)C(=O)O[C@H]1C=CC(=O)O[C@H]1COC(=O)[C@H](C)O,IC50,SW-620,11 µM
same,IC50,SNB-75,16 µM
same,IC50,SNB-19,16 µM
same,IC50,HL-60(TB),2 to 49 µM
same,IC50,UO-31,15 µM
same,IC50,SF-539,16 µM
same,IC50,MDA-MB-468,2 to 49 µM
same,IC50,NCI-H522,19 µM
same,IC50,A498,15 µM
same,IC50,TK-10,15 µM
same,IC50,Hs-578T,12 µM
same,IC50,UACC-62,13 µM
same,IC50,SK-OV-3,16 µM
same,IC50,SF-268,16 µM
same,IC50,IGROV-1,16 µM
same,IC50,NCI/ADR-RES,12 µM
same,IC50,HCC 2998,11 µM
same,IC50,KM12,11 µM
same,IC50,RPMI-8226,2 to 49 µM
same,IC50,PC-3,16 µM
same,IC50,SR,2 to 49 µM
same,IC50,OVCAR-8,16 µM
same,IC50,ACHN,15 µM
same,IC50,U-251,16 µM
same,IC50,HCT-15,11 µM
same,IC50,K562,2 to 49 µM
same,IC50,HCT-116,11 µM
same,IC50,CAKI-1,15 µM
same,IC50,DU-145,16 µM
same,IC50,SN12C,15 µM
same,IC50,OVCAR-5,16 µM
same,IC50,MDA-MB-435,12 µM
same,IC50,BT-549,2 to 49 µM
same,IC50,CCRF-CEM,2 to 49 µM
same,IC50,OVCAR-4,16 µM
same,IC50,HOP-92,2 to 49 µM
same,IC50,MOLT-4,2 to 49 µM
same,IC50,SF-295,16 µM
same,IC50,MCF7,12 µM
same,IC50,T47D,12 µM
same,IC50,COLO 205,11 µM
same,IC50,RXF 393,15 µM
same,IC50,MDA-MB-231,12 µM
same,IC50,HT-29,11 µM
same,IC50,OVCAR-3,16 µM
same,IC50,786-0,15 µM
